Where two headings read alike, the source gives them in different places.
Key:
[1] = biological target: T1, pseudo-kinase domain (JH2) of human V617F mutant JAK2 (Homo sapiens, UniProt O60674, F794H/V617F/W659A/W777A); assay: JAK2 LanthaScreen JH2-V617F binding assay; conditions: read-out: JH2 V617F Bind IC50
T1 construct: pseudo-kinase domain (JH2, amino-acids 536-812 with 3 surface mutations W659A, W777A, F794H); His (C); purchased BPS Bioscience 79498; host or cells: baculovirus expression system
T1 sequence (O60674 536-812 V617F/W659A/W777A/F794H): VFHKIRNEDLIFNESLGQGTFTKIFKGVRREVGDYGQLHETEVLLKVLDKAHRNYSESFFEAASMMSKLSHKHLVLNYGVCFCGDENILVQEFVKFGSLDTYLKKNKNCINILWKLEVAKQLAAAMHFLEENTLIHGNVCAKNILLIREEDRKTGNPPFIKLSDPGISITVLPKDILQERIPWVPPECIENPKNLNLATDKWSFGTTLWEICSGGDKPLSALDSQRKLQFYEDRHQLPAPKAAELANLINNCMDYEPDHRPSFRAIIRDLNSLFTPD
Protocol: Example B. JAK2 LanthaScreen JH2-V617F Binding Assay
JAK2 JH2-V617F binding assay utilizes pseudo-kinase domain (JH2, amino-acids 536-812 with 3 surface mutations W659A, W777A, F794H) of human V617F mutant JAK2 expressed as C-terminal His-Avi-tagged, biotinylated protein in a baculovirus expression system (BPS Bioscience, Catalog #79498). The assay was conducted in black 384-well polystyrene plates in a final reaction volume of 20 μL. JAK2 JH2-V617F (0.26 nM) was incubated with compounds (100 nL serially diluted in DMSO) in the presence of 50 nM Fluorescent JAK2-JH2 Tracer (MedChem Express Catalog #HY-102055) and 0.25 nM Streptavidin-Tb cryptate (Cisbio Part #610SATLB) in assay buffer (50 mM Tris, pH=7.5, 10 mM MgCl2, 0.01% Brij-35, 0.1% BSA, 1 mM EGTA, 5% Glycerol and 5 mM DTT). Non-specific binding was accessed in the presence of 2 mM ATP. After incubation for 1 hour at 25° C., LanthaScreen signals were read on a PHERAstar FS plate reader (BMG LABTECH). Data was analyzed with IDBS XLfit and GraphPad Prism 5.0 software using a four parameter dose response curve to determine IC50 for each compound.

KIT [2] = biological target: KIT (Homo sapiens, UniProt P10721); assay: KIT enzymatic assay; type: biochemical; conditions: 1 mM ATP
Sequence of KIT (Homo sapiens, UniProt P10721) (P10721 26-976, species assumed): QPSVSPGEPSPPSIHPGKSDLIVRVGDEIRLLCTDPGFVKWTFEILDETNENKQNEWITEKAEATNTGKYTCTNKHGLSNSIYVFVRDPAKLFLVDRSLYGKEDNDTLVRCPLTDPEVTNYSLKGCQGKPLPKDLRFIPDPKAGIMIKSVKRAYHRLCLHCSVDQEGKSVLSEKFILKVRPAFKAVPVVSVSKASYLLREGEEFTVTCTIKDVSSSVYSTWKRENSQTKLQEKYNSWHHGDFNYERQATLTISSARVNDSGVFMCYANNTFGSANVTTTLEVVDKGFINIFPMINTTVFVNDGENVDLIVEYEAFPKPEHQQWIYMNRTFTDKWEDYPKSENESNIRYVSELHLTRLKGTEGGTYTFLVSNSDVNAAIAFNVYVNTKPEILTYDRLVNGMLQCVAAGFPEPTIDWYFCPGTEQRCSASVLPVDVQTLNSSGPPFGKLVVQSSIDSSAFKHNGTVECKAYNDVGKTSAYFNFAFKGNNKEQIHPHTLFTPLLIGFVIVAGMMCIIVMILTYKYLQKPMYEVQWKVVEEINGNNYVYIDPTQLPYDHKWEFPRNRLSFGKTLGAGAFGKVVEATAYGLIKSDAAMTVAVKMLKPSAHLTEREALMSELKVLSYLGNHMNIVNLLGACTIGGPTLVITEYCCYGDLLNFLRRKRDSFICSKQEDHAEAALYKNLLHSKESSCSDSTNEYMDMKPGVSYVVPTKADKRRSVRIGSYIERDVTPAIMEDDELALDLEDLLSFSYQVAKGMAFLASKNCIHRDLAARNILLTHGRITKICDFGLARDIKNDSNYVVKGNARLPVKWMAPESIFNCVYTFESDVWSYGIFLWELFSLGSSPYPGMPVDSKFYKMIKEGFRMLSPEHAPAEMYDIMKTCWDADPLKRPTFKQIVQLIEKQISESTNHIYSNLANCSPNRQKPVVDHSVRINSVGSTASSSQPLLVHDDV
Protocol: (§1) Example D. KIT Enzymatic Assay
(§2) The kinase assays were carried out at room temperature in assay buffer (HEPES 50 mM, pH 7.0, NaN3 0.02%, BSA 0.01%, Orthovanadate 0.1 mM, DTT 1 mM, MgCl2 10 mM) in a final volume of 10 μL. Testing compounds were prepared by serial dilution in DMSO and transferred to the plate wells by ECHO liquid handler (Labcyte) with 0.5% DMSO in the final assay. […]. Reactions were initiated by the addition of 5 μL ATP in assay buffer. The final 10 μL kinase reaction consists of 0.12 nM KIT, 1 mM ATP, 500 nM TK Substrate-biotin and SEB reagent 62.5 nM in assay buffer. […] The plates were then sealed and centrifuged at 1800 rpm for 2 minutes. After 60 minutes incubation at room temperature, the product activity was determined by measuring the fluorescence at 620 nm and 665 nm on Pherastar microplate reader (BMG Labtech). A ratio is calculated (665/620 nm) for each well. Wells with DMSO only were served as the positive controls and wells containing no ATP were used as negative controls. IC50 determination was performed by fitting the curve of percent control activity versus the log of the compound concentration using the GraphPad Prism 7.0 software.

KIT [3] = assay: KIT enzymatic assay; type: biochemical
Protocol: as §1, §2

[4] = In vitro intrinsic clearance; type: in vitro ADME; conditions: human liver microsomes, 1 μM
Protocol: Example G. In Vitro Intrinsic Clearance Protocol
For in vitro metabolic stability experiments, test compounds were incubated with human liver microsomes at 37° C. The incubation mixture contained test compounds (1 μM), NADPH (2 mM), and human liver microsomes (0.5 mg protein/mL) in 100 mM phosphate buffer (pH 7.4). The mixture was pre-incubated for 2 min at 37° C. before the addition of NADPH. Reactions were commenced upon the addition of NADPH and quenched with ice-cold methanol at 0, 10, 20, and 30 min. Terminated incubation mixtures were analyzed using LC-MS/MS system. The analytical system consisted of a Shimadzu LC-30AD binary pump system and SIL-30AC autosampler (Shimadzu Scientific Instruments, Columbia, MD) coupled with a Sciex Triple Quad 6500+ mass spectrometer from Applied Biosystems (Foster City, CA). […] Mobile phase A consisted of 0.1% formic acid in water, and mobile phase B consisted of 0.1% formic acid in acetonitrile. The total LC-MS/MS runtime was 2.75 minutes with a flow rate of 0.75 mL/min. Peak area integrations and peak area ratio calculations were performed using Analyst software (version 1.6.3) from Applied Biosystems.
The in vitro intrinsic clearance, CLint, in vitro, was calculated from the t1/2 of test compound disappearance as CLint, in vitro=(0.693/t1/2)×(1/Cprotein), where Cprotein is the protein concentration during the incubation, and t1/2 was determined by the slope (k) of the log-linear regression analysis of the concentration versus time profiles; thus, t1/2=ln 2/k. The CLint, in vitro values were scaled to the in vivo values for human by using physiologically based scaling factors, hepatic microsomal protein concentrations (45 mg protein/g liver), and liver weights (21 g/kg body weight). The equation CLint=CLint, in vitro×(mg protein/g liver weight)×(g liver weight/kg body weight) was used. The in vivo hepatic clearance (CLH) was then calculated by using CLint and hepatic blood flow, Q (20 mL·min^−1·kg^−1 in humans) in the well-stirred liver model disregarding all binding from CLH=(Q×CLint)/(Q+CLint). The hepatic extraction ratio was calculated as CLH divided by Q.

TRKA [5] = biological target: TRKA (Homo sapiens, UniProt P04629); assay: TRKA enzymatic assay; type: biochemical; conditions: 1 mM ATP
Sequence of TRKA (Homo sapiens, UniProt P04629) (P04629 33-796, species assumed): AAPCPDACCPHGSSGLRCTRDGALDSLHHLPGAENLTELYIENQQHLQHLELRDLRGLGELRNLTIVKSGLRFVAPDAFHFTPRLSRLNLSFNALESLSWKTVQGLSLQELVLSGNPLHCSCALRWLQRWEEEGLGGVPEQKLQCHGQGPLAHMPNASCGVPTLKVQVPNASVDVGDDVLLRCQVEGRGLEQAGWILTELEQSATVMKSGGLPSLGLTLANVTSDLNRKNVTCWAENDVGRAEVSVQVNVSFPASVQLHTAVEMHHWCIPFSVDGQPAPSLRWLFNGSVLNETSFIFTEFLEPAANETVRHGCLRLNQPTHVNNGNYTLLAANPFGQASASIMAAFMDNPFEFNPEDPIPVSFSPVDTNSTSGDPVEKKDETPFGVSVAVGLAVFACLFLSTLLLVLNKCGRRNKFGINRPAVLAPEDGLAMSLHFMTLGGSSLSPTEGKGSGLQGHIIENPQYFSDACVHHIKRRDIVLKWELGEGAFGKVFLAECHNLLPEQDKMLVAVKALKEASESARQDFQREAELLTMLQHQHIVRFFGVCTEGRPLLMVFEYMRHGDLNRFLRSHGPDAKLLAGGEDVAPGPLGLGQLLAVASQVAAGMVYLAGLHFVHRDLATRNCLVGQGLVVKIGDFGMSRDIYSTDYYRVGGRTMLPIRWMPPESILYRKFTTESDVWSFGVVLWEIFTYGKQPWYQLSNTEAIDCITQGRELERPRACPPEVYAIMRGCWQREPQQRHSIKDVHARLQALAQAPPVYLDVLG
Protocol: (§3) Example I. TRKA Enzymatic Assay
(§4) The kinase assays were carried out at 24° C. temperature in assay buffer (HEPES 50 mM, pH 7.0, NaN3 0.02%, BSA 0.01%, Orthovanadate 0.1 mM, DTT 1 mM, MgCl2 10 mM) in a final volume of 10 μL. Testing compounds were prepared by serial dilution in DMSO and transferred to the plate wells by ECHO liquid handler (Labcyte) with 0.5% DMSO in the final assay. […]. Reactions were initiated by the addition of 5 μL ATP in assay buffer. The final 10 μL kinase reaction consists of 0.58 nM TRKA, 1 mM ATP, 500 nM TK Substrate-biotin and SEB reagent 62.5 nM in assay buffer. […] After 60 minutes incubation at room temperature, the product activity was determined by measuring the fluorescence at 620 nm and 665 nm on Pherastar microplate reader (BMG Labtech). A ratio is calculated (665/620 nm) for each well. Wells with DMSO only were served as the positive controls and wells containing no ATP were used as negative controls. IC50 determination was performed by fitting the curve of percent control activity versus the log of the compound concentration using the Gene data.

TRKA [6] = assay: TRKA enzymatic assay; type: biochemical
Protocol: as §3, §4

SMILES | IC50 ([1]; Table A) | IC50 ([1]; Table C) | IC50 (KIT [2]) | Selectivity KIT/JH2 V617F (KIT [3]) | h-IntCL [4] | IC50 (TRKA [5]) | Selectivity TRKA/JH2 V617F (TRKA [6])
[2H]C([2H])([2H])n1cc(-c2[nH]c3ncc4c(c3c2-c2ccc(F)cc2)n([C@@H]2CC[C@@H](NC(=O)OC)C2)c(=O)n4C([2H])([2H])[2H])c(F)n1 [Example 7, Methyl ((1R,3R)-3-(7-(3-fluoro-1-(methyl-d3)-1H-pyrazol-4-yl)-8-(4-fluorophenyl)-3-(methyl-d3)-2-oxo-3,6-dihydroimidazo[4,5-d]pyrrolo[2,3-b]pyridin-1(2H)-yl)cyclopentyl)carbamate] | ≤ 10 nM | ≤ 10 nM | 250 to 1250 nM | ** (selectivity of >500-fold to ≤1500-fold) | ‡ (h-IntCL of <0.7 L/h/kg) | > 2500 nM | ***** (selectivity of >5000-fold to ≤12500-fold)
[2H]C([2H])([2H])n1c(=O)n([C@@H]2CC[C@@H](NC(=O)OC)C2)c2c3c(-c4ccc5c(c4)COC5(C)C)c(-c4cn(CC)nc4F)[nH]c3ncc21 [Example 20, Methyl ((1R,3R)-3-(8-(1,1-dimethyl-1,3-dihydroisobenzofuran-5-yl)-7-(1-ethyl-3-fluoro-1H-pyrazol-4-yl)-3-(methyl-d3)-2-oxo-3,6-dihydroimidazo[4,5-d]pyrrolo[2,3-b]pyridin-1(2H)-yl)cyclopentyl)carbamate] | ≤ 10 nM | ≤ 10 nM | > 2500 nM | ****** (selectivity of >12500-fold) | ‡ ‡ (h-IntCL of ≥0.7 L/h/kg to ≤1 L/h/kg) | > 2500 nM | ****** (selectivity of >12500-fold)
[2H]C([2H])([2H])n1c(=O)n([C@@H]2CC[C@@H](NC(=O)OC)C2)c2c3c(-c4ccc5c(c4)COC5(C)C)c(-c4cn(C([2H])([2H])C([2H])([2H])[2H])nc4F)[nH]c3ncc21 [Example 19, Methyl ((1R,3R)-3-(8-(1,1-dimethyl-1,3-dihydroisobenzofuran-5-yl)-7-(1-(ethyl-d5)-3-fluoro-1H-pyrazol-4-yl)-3-(methyl-d3)-2-oxo-3,6-dihydroimidazo[4,5-d]pyrrolo[2,3-b]pyridin-1(2H)-yl)cyclopentyl)carbamate] | ≤ 10 nM | ≤ 10 nM | > 2500 nM | ****** (selectivity of >12500-fold) | ‡ ‡ (h-IntCL of ≥0.7 L/h/kg to ≤1 L/h/kg) | > 2500 nM | ****** (selectivity of >12500-fold)
[2H]C([2H])([2H])n1ncc2cc(-c3c(-c4cn(C)nc4OC)[nH]c4ncc5c(c34)n([C@@H]3CC[C@@H](NC(=O)OC)C3)c(=O)n5C)ccc21 [Example 5, Methyl ((1R,3R)-3-(7-(3-methoxy-1-methyl-1H-pyrazol-4-yl)-3-methyl-8-(1-(methyl-d3)-1H-indazol-5-yl)-2-oxo-3,6-dihydroimidazo[4,5-d]pyrrolo[2,3-b]pyridin-1(2H)-yl)cyclopentyl)carbamate] | ≤ 10 nM | ≤ 10 nM | > 2500 nM | ****** (selectivity of >12500-fold) | ‡ (h-IntCL of <0.7 L/h/kg) | > 2500 nM | ****** (selectivity of >12500-fold)
[2H]C([2H])([2H])n1c(=O)n([C@@H]2CC[C@@H](NC(=O)OC)C2)c2c3c(-c4ccc5c(c4)COC5(C)C)c(-c4cn(CC(F)F)nc4F)[nH]c3ncc21 [Example 12, Methyl ((1R,3R)-3-(7-(1-(2,2-difluoroethyl)-3-fluoro-1H-pyrazol-4-yl)-8-(1,1-dimethyl-1,3-dihydroisobenzofuran-5-yl)-3-(methyl-d3)-2-oxo-3,6-dihydroimidazo[4,5-d]pyrrolo[2,3-b]pyridin-1(2H)-yl)cyclopentyl)carbamate] | ≤ 10 nM | ≤ 10 nM | > 2500 nM | ****** (selectivity of >12500-fold) | ‡ ‡ (h-IntCL of ≥0.7 L/h/kg to ≤1 L/h/kg) | > 2500 nM | ****** (selectivity of >12500-fold)

Source: patent US12084430B2, “Tricyclic urea compounds as JAK2 V617F inhibitors” (Incyte Corporation, priority 2022, dated 2024)
